Reference: patent US7138361B2, “Herbicidal heterocycles” (E. I. du Pont de Nemours and Company, priority 2000, dated 2006)

Key:
Assay type in all cases: in vivo
[1] = system: Surinam grass (Brachiaria decumbens); experiment: Test B postemergence; conditions: 13 to 15 days
Summary of the method: (§1)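 Seeds were planted and sprayed preemergence with test chemical in a non-phytotoxic solvent mixture containing surfactant; postemergence plants (2 to 18 cm, 1- to 4-leaf stage) received the same formulation. Greenhouse hold 13 to 15 days, then visual rating versus untreated controls on a 0–100 scale (0 no effect, 100 complete control).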

[2] = system: barnyardgrass (Echinochloa crus-galli); experiment: Test B postemergence; conditions: 13 to 15 days
Summary of the method: as §1

[3] = system: blackgrass (Alopecurus myosuroides); experiment: Test B postemergence; conditions: 13 to 15 days
Summary of the method: as §1

[4] = system: cocklebur (Xanthium strumarium); experiment: Test B postemergence; conditions: 13 to 15 days
Summary of the method: as §1

[5] = system: corn (Zea mays); experiment: Test B postemergence; conditions: 13 to 15 days
Summary of the method: as §1

[6] = system: crabgrass (Digitaria sanguinalis); experiment: Test B postemergence; conditions: 13 to 15 days
Summary of the method: as §1

[7] = system: giant foxtail (Setaria faberii); experiment: Test B postemergence; conditions: 13 to 15 days
Summary of the method: as §1

[8] = system: lambsquarters (Chenopodium album); experiment: Test B postemergence; conditions: 13 to 15 days
Summary of the method: as §1

[9] = system: morning glory (Ipomoea hederacea); experiment: Test B postemergence; conditions: 13 to 15 days
Summary of the method: as §1

[10] = system: pigweed (Amaranthus retroflexus); experiment: Test B postemergence; conditions: 13 to 15 days
Summary of the method: as §1

[11] = system: velvetleaf (Abutilon theophrasti); experiment: Test B postemergence; conditions: 13 to 15 days
Summary of the method: as §1

[12] = system: wheat (Triticum aestivum); experiment: Test B postemergence; conditions: 13 to 15 days
Summary of the method: as §1

[13] = system: wild oat (Avena fatua); experiment: Test B postemergence; conditions: 13 to 15 days
Summary of the method: as §1

[14] = system: Surinam grass (Brachiaria decumbens); experiment: Test B preemergence
Summary of the method: as §1

[15] = system: barnyardgrass (Echinochloa crus-galli); experiment: Test B preemergence
Summary of the method: as §1

[16] = system: cocklebur (Xanthium strumarium); experiment: Test B preemergence
Summary of the method: as §1

[17] = system: corn (Zea mays); experiment: Test B preemergence
Summary of the method: as §1

[18] = system: crabgrass (Digitaria sanguinalis); experiment: Test B preemergence
Summary of the method: as §1

[19] = system: giant foxtail (Setaria faberii); experiment: Test B preemergence
Summary of the method: as §1

[20] = system: lambsquarters (Chenopodium album); experiment: Test B preemergence
Summary of the method: as §1

[21] = system: morning glory (Ipomoea hederacea); experiment: Test B preemergence
Summary of the method: as §1

[22] = system: pigweed (Amaranthus retroflexus); experiment: Test B preemergence
Summary of the method: as §1

[23] = system: rice (Oryza saliva); experiment: Test B preemergence
Summary of the method: as §1

[24] = system: velvetleaf (Abutilon theophrasti); experiment: Test B preemergence
Summary of the method: as §1

[25] = system: Nightshade; experiment: Test C preemergence; conditions: visual evaluation after 12 to 14 days
[26] = system: Sunflower; experiment: Test C preemergence; conditions: scale 0 to 100, 0 no effect, 100 complete control
[27] = Rate 125 g/ha, scale 0 (no effect) to 100 (complete control)
[28] = Rate 500 g/ha, scale 0 to 100, 0 is no effect, 100 is complete control
[29] = Preemergence, Rate 500 g/ha, scale 0 to 100, 0 no effect, 100 complete control
[30] = preemergence, Rate 125 g/ha, scale 0 to 100, 0 no effect, 100 complete control
[31] = preemergence, Rate 125 g/ha, scale of 0 to 100 where 0 is no effect and 100 is complete control, 13 to 15 days

CC(C)(C)c1ccn(C2CCN(c3ccc(Cl)c(Cl)c3)C2=O)n1 (centres unmarked) [Compound 34]
70: Plant response rating, Foxtail, Giant [19, 29]
60: Plant response rating, Barnyardgrass [15, 29]
20: Plant response rating, Surinam grass [14, 29] | Plant response rating, Lambsquarters [20, 30]
90: Plant response rating, Lambsquarters [8, 27] | Plant response rating, Pigweed [10, 27] | Plant response rating, Pigweed [10, 28]
0: Plant response rating, Surinam grass [1, 27] | Plant response rating, Surinam grass [1, 28] | Plant response rating, Barnyardgrass [2, 27] | Plant response rating, Barnyardgrass [2, 28] | Plant response rating, Blackgrass [3, 27] | Plant response rating, Blackgrass [3, 28] | Plant response rating, Cocklebur [4, 27] | Plant response rating, Cocklebur [4, 28] | Plant response rating, Corn [5, 27] | Plant response rating, Corn [5, 28] | Plant response rating, Crabgrass [6, 27] | Plant response rating, Crabgrass [6, 28] | Plant response rating, Foxtail, Giant [7, 27] | Plant response rating, Foxtail, Giant [7, 28] | Plant response rating, Morningglory [9, 27] | Plant response rating, Morningglory [9, 28] | Plant response rating, Velvetleaf [11, 27] | Plant response rating, Velvetleaf [11, 28] | Plant response rating, Wheat [12, 27] | Plant response rating, Wheat [12, 28] | Plant response rating, Wild Oat [13, 27] | Plant response rating, Wild Oat [13, 28] | Plant response rating, Surinam grass [14, 30] | Plant response rating, Barnyardgrass [15, 30] | Plant response rating, Cocklebur [16, 29] | Plant response rating, Cocklebur [16, 30] | Plant response rating, Corn [17, 29] | Plant response rating, Corn [17, 30] | Plant response rating, Foxtail, Giant [19, 30] | Plant response rating, Morningglory [21, 29] | Plant response rating, Rice [23, 29] | Plant response rating (0 to 100), Nightshade ([25]; Rate 250 g/ha) | Plant response rating, Sunflower ([26]; Rate 125 g/ha)
100: Plant response rating, Lambsquarters [8, 28] | Plant response rating, Crabgrass [18, 30] | Plant response rating, Lambsquarters [20, 29] | Plant response rating, Pigweed [22, 29] | Plant response rating, Velvetleaf [24, 29]

CCCC(C)c1ccn(C2SCN(c3cccc(C(F)(F)F)c3)C2=O)n1 (centres unmarked) [Compound 92]
70: Plant response rating, Barnyardgrass [2, 28] | Plant response rating, Surinam grass [14, 29]
20: Plant response rating, Cocklebur [4, 27] | Plant response rating, Velvetleaf [11, 28]
40: Plant response rating, Sunflower ([26]; Rate 250 g/ha)
60: Plant response rating, Pigweed [10, 28]
100: Plant response rating, Barnyardgrass [15, 29] | Plant response rating, Crabgrass [18, 29] | Plant response rating, Foxtail, Giant [19, 29] | Plant response rating, Lambsquarters [20, 29] | Plant response rating, Lambsquarters [20, 31] | Plant response rating, Pigweed [22, 29]
50: Plant response rating, Crabgrass [6, 28] | Plant response rating, Morningglory [9, 28] | Plant response rating, Crabgrass [18, 31] | Plant response rating, Foxtail, Giant [19, 31]
10: Plant response rating, Surinam grass [1, 28] | Plant response rating, Corn [5, 28] | Plant response rating, Crabgrass [6, 27]
80: Plant response rating, Cocklebur [4, 28] | Plant response rating, Pigweed [22, 31] | Plant response rating (0 to 100), Nightshade ([25]; Rate 500 g/ha)
30: Plant response rating, Foxtail, Giant [7, 28] | Plant response rating, Barnyardgrass [15, 31]
90: Plant response rating, Lambsquarters [8, 28]
0: Plant response rating, Surinam grass [1, 27] | Plant response rating, Barnyardgrass [2, 27] | Plant response rating, Blackgrass [3, 27] | Plant response rating, Blackgrass [3, 28] | Plant response rating, Corn [5, 27] | Plant response rating, Foxtail, Giant [7, 27] | Plant response rating, Wheat [12, 28] | Plant response rating, Wild Oat [13, 28] | Plant response rating, Surinam grass [14, 31] | Plant response rating, Cocklebur [16, 29] | Plant response rating, Cocklebur [16, 31] | Plant response rating, Corn [17, 29] | Plant response rating, Corn [17, 31] | Plant response rating, Morningglory [21, 29] | Plant response rating, Morningglory [21, 31] | Plant response rating, Rice [23, 29] | Plant response rating, Rice [23, 31] | Plant response rating, Velvetleaf [24, 29] | Plant response rating, Velvetleaf [24, 31]
